Data as given in US8663690B2, “Method for nanoencapsulation” (William Marsh Rice University, priority 2006, dated 2014).

Assay: UV-vis spectroscopy estimate of lutein-ester dissolved in ethanol
Type: physicochemical
Conditions: ethanol at 60° C., estimated from UV-vis spectroscopy; rest undissolved particles
Protocol: A suspension of lutein-ester (Blue California, Co.) was prepared by dissolving lutein-ester powder in ethanol at 60° C. under stirring. It is estimated from UV-vis spectroscopy that 20.0 wt % lutein-ester dissolves in ethanol at 60° C., and the rest are in the form of undissolved nanoparticles, mesoparticles, and microparticles. A solution of gum arabic (Sigma) was prepared by dissolving gum arabic in deionized water (18.2 Mega-Ohm·cm) at 60° C. under stirring until the gum arabic was completely dissolved and a clear solution was obtained.

fraction of lutein-ester that dissolves in ethanol: 20.0 wt %
Substance: lutein-ester
